From ChEMBL document CHEMBL1134815, “3,3a-Dihydropyrano[4,3,2-de]quinazolin-2(1H)-ones are potent non-nucleoside reverse transcriptase inhibitors” (Bioorg Med Chem Lett, 2001)

Assays:
[1] = biological target: Human immunodeficiency virus type 1 reverse transcriptase (Human immunodeficiency virus 1, UniProt Q72547); assay: Tested for inhibitory concentration against HIV-1 non-nucleoside reverse transcriptase
[2] = test system: Human immunodeficiency virus type 1 reverse transcriptase (Human immunodeficiency virus 1), Q72547 [K103N]
Description: Inhibitory concentration against wild-type virus K103N and HIV-1 RT mutant in a whole cell antiviral assay

[3] = biological target: Human immunodeficiency virus type 1 reverse transcriptase (Human immunodeficiency virus 1) (UniProt Q72547)
Description: Inhibitory concentration against HIV-1 reverse transcriptase

[4] = test system: HIV-1 reverse transcriptase (Human immunodeficiency virus 1); assay: Inhibitory concentration against wild-type virus K103N/[…] and HIV-1 RT double mutant in whole cell antiviral assay
[5] = test system: HIV-1 reverse transcriptase (Human immunodeficiency virus 1); assay: Inhibitory concentration against wild-type virus K103N mutant in a whole cell antiviral assay
[6] = test system: HIV-1 reverse transcriptase (Human immunodeficiency virus 1); assay: Inhibitory concentration against wild-type virus K103N/[…] and HIVdouble mutant in a whole cell antiviral assay

Row | SMILES | IC50 [1] | IC90 [2] | IC90 [3] | IC90 [4] | IC90 [5] | IC90 [6]
1 | O=C1Nc2ccc(Cl)c3c2C(C(F)(F)F)(C=C(c2cccnc2)O3)N1 (stereo unspecified) | 122 nM | 76 nM | 4.6 nM | 897 nM |  | 
2 | Fc1ccc2c3c1S/C(=C\c1cccnc1)C3(C(F)(F)F)NC(S)=N2 (stereo unspecified) |  | 84 nM | 7 nM |  |  | 
3 | O=C1Nc2ccc(Cl)cc2[C@@](/C=C/C2CC2)(C(F)(F)F)N1 |  |  |  |  | 27 nM | 1690 nM
4 | O=C1Nc2ccc(Cl)cc2C(C#Cc2ccccc2)(C(F)(F)F)N1 (stereo unspecified) |  | 7 nM |  |  |  | 
5 | O=C1Nc2ccc(Cl)c3c2C(C(F)(F)F)(C=C(C2CC2)O3)N1 (stereo unspecified) | 90 nM | 76 nM | 3.6 nM |  |  | 
6 | COc1c(Cl)ccc2c1C(C#Cc1cccnc1)(C(F)(F)F)NC(=O)N2 (stereo unspecified) | 139 nM | 147 nM | 7.1 nM | 2540 nM |  | 
7 | O=C1Nc2ccc(Cl)c3c2C(C(F)(F)F)(C=C(c2ccccc2)O3)N1 (stereo unspecified) | 244 nM | 46 nM | 8.2 nM | 1660 nM |  | 
8 | O=C1Nc2ccc(Cl)c(O)c2C(C#CC2CC2)(C(F)(F)F)N1 (stereo unspecified) | 54 nM | 28 nM | 3.6 nM | 3020 nM |  | 
9 | O=C1Nc2ccc(Cl)c(O)c2C(C#Cc2ccccc2)(C(F)(F)F)N1 (stereo unspecified) | 174 nM | 30 nM | 6.8 nM | 1940 nM |  | 
10 | O=C1Nc2ccc(Cl)cc2[C@@](C#CC2CC2)(C(F)(F)F)N1 |  |  |  | 1100 nM |  | 
11 | COc1c(Cl)ccc2c1C(C#CC1CC1)(C(F)(F)F)NC(=O)N2 (stereo unspecified) | 70 nM | 7.5 nM | 3.5 nM |  |  | 
12 | COc1c(Cl)ccc2c1C(C#Cc1ccccc1)(C(F)(F)F)NC(=O)N2 (stereo unspecified) | 144 nM | 113 nM | 7.9 nM | 5520 nM |  | 
